Assay results taken from patent US20120115793A1, “PEPTIDOMIMETIC MACROCYCLES” (Alleron Therapeutics, Inc, priority 2008, published 2012).
Read-outs that look alike come from different tables or passages of the source. Where a SMILES comes first, the peptide text is derived from it. Bridges are numbered along the chain shown (N, C = ends). [ ]: non-standard residue; d: D form. S5 = C=CCCC[C@](C)(N)C(=O)O

Legend:
[1] = test system: human serum proteins (HSA); assay: Apparent affinity to human serum proteins (Kd*) by EC50 shift analysis; format: in vitro ADME
Description: The measurement of apparent Kd values for serum protein by EC50 shift analysis provides a simple and rapid means of quantifying the propensity of experimental compounds to bind HSA and other serum proteins. A linear relationship exists between the apparent EC50 in the presence of serum protein (EC'50) and the amount of serum protein added to an in vitro assay. This relationship is defined by the binding affinity of the compound for serum proteins, expressed as Kd*. This term is an experimentally determined, apparent dissociation constant that may result from the cumulative effects of multiple, experimentally indistinguishable, binding events. The form of this relationship is presented here in Eq. 0.3, and its derivation can be found in Copeland et al, Biorg. Med. Chem. Lett. 2004, 14:2309-2312.
A significant proportion of serum protein binding can be ascribed to drug interactions with HSA, due to the very high concentration of this protein in serum (35-50 g/L or 530-758 μM). To calculate the Kd value for these compounds we have assumed that the shift in EC50 upon protein addition can be ascribed fully to the HSA present in the added serum, where P is 700 μM for 100% serum, P is 70 μM for 10% serum, etc. We further made the simplifying assumption that all of the compounds bind HSA with a 1:1 stoichiometry, so that the term n in Eq. (0.3) is fixed at unity. With these parameters in place we calculated the Kd* value for each stapled peptide from the changes in EC50 values with increasing serum (and serum protein) concentrations by nonlinear regression analysis of Eq. 0.3 using Mathematica 4.1 (Wolfram Research, Inc., www.wolfram.com). EC'50 values in whole blood are estimated by setting P in Eq. 0.3 to 700 μM [HSA].
The free fraction in blood is estimated using the following equation, as derived by Trainor, Expert Opin. Drug Disc., 2007, 2(1):51-64, where [HSA] total is set at 700 μM.
The following macrocycles derived from the human MAML peptide sequences were tested in cell viability assays (described above) with the MOLT-4 tumor cell line at a range of human serum protein concentrations to determine their apparent affinity to human serum proteins and the projected EC50s in whole human blood: […]

[2] = test system: Molt-4 cell line; format: cell-based; conditions: 48 h
Description: Molt-4 cell line (ATCC catalog #CRL-1582) was grown in specific serum-supplemented media (RPMI-1640, Invitrogen catalog #72400) as recommended by ATCC. A day prior to the initiation of the study, cells were split at optimal cell density (2×10^5-5×10^5 cells/ml) to assure actively dividing cells. The next day, cells were washed twice in serum-free Opti-MEM media (Invitrogen, Catalog #51985) and cells were then plated at optimal cell density (10,000 cells/well) in 50 μl Opti-MEM media or Opti-MEM supplemented with 2%, 4% or 10% human serum (Bioreclamation, catalog #HMSRM) in 96-well white tissue culture plate (Nunc, catalog #136102).
For serum free experiment, peptidomimetic macrocycles were diluted from 2 mM stocks (100% DMSO) in sterile water to prepare 400 μM working solutions. The macrocycles and controls were diluted 10-fold first and then serially two-fold diluted in Opti-MEM in dosing plates to provide concentrations of between 1.2 and 40 μM. 50 μL of each dilution was then added to the appropriate wells of the test plate to achieve final concentrations of the polypeptides equal to between 0.6 to 20 μM. For studies using Opti-MEM supplemented with human serum (Bioreclamation, catalog #HMSRM), peptidomimetic macrocycles were diluted from 10 mM stocks (100% DMSO) in sterile water to prepare 2 mM working solutions. The peptide macrocycles and controls were diluted 10-fold first and then serially two-fold diluted in Opti-MEM in the presence of 2%, 4% or 10% of human serum to provide concentrations of the polypeptides equal to between 6.25 to 200 μM in dosing plates. 50 μL of each dilution was then added to the appropriate welts of the test plate to achieve final concentrations of the polypeptides equal to between 3.125 to 100 μM. Controls included wells without polypeptides containing the same concentration of DMSO as the wells containing the macrocycles, wells containing 0.1% Triton X-100 and wells containing no cells. Plates were incubated for 48 hours at 37° C. in humidified 5% CO2 atmosphere.
At the end of the incubation period, CellTiter-Glo assay was performed according to manufacturer's instructions (Promega, catalog #G7573) and luminescence was measured using Synergy HT Plate reader (BioTek).
The following macrocycles derived from the human MAML peptide sequences were tested in cell viability assays with the MOLT-4 tumor cell line: […]

Compound	EC50 [2]	further results
CC[C@H](C)[C@H](NC(=O)[C@H](CCCNC(=N)N)NC(=O)[C@H](CCCNC(=N)N)NC(=O)[C@H](CCCNC(=N)N)NC(=O)[C@H](CC(C)C)NC(=O)[C@H](C)NC(C)=O)C(=O)N[C@@]1(C)CCCC=CCCC[C@@](C)(C(=O)N[C@@H](Cc2c[nH]cn2)C(=O)N[C@@H](Cc2c[nH]cn2)C(=O)N[C@@H](CO)C(=O)N[C@H](C(N)=O)[C@@H](C)O)NC(=O)[C@H](C)NC(=O)[C@H](CS)NC(=O)[C@H](CC(C)C)NC1=O [Compound 19, Ac-ALRRRI$LCA$HHST-NH2] (Ac-ALRRRI[S5]LCA[S5]HHST-NH2; staple 7-11)		fraction unbound ([1]; human, estimated with [HSA] total set at 700 μM, read-out: Free Fraction est. in blood): 0.001; Kd ([1]; nonlinear regression of EC50 shift with increasing human serum, 1:1 HSA binding assumed, 700 μM HSA for 100% serum, read-out: Serum Kd*): 0.6 µM
CC[C@H](C)[C@H](NC(=O)[C@H](CCCNC(=N)N)NC(=O)[C@H](CCCNC(=N)N)NC(=O)[C@H](CCCNC(=N)N)NC(=O)[C@H](CC(C)C)NC(=O)[C@H](CCCNC(=N)N)NC(=O)[C@H](CCC(=O)O)NC(C)=O)C(=O)N[C@@]1(C)CCCC=CCCC[C@@](C)(C(=O)N[C@@H](Cc2c[nH]cn2)C(=O)N[C@@H](Cc2c[nH]cn2)C(=O)N[C@@H](CO)C(=O)N[C@H](C(N)=O)[C@@H](C)O)NC(=O)[C@H](CCCNC(=N)N)NC(=O)[C@H](CS)NC(=O)[C@H](CC(C)C)NC1=O [Compound 1, Ac-ERLRRRI$LCR$HHST-NH2] (Ac-ERLRRRI[S5]LCR[S5]HHST-NH2; staple 8-12)		Kd ([1]; human): < 0.1 µM; fraction unbound ([1]; human, serum): < 0.001
CC[C@H](C)[C@H](NC(=O)[C@H](CCCNC(=N)N)NC(=O)[C@H](CCCNC(=N)N)NC(=O)[C@H](CCCNC(=N)N)NC(=O)[C@H](CC(C)C)NC(=O)[C@H](CCCNC(=N)N)NC(=O)[C@H](CCC(=O)O)NC(C)=O)C(=O)N[C@@H](CCC(=O)O)C(=O)N[C@@H](CC(C)C)C(=O)N[C@@H](CS)C(=O)N[C@@H](CCCNC(=N)N)C(=O)N[C@@H](CCCNC(=N)N)C(=O)N[C@@H](Cc1c[nH]cn1)C(=O)N[C@@H](Cc1c[nH]cn1)C(=O)N[C@@H](CO)C(=O)N[C@H](C(N)=O)[C@@H](C)O [Compound 2, Ac-ERLRRRIELCRRHHST-NH2] (Ac-ERLRRRIELCRRHHST-NH2)	> 20 µM	
CC[C@H](C)[C@H](NC(=O)[C@H](CCCNC(=N)N)NC(=O)[C@H](CCCNC(=N)N)NC(C)=O)C(=O)N[C@@H](CCC(=O)O)C(=O)N[C@@H](CC(C)C)C(=O)N[C@@H](C)C(=O)N[C@@H](CCCNC(=N)N)C(=O)N[C@@H](CCCNC(=N)N)C(=O)N[C@@]1(C)CCCC=CCCC[C@@](C)(C(=O)N[C@@H](CCC(=O)O)C(=O)N[C@@H](C)C(=O)N[C@@H](CCCNC(=N)N)C(=O)N[C@@H](Cc2ccc(O)cc2)C(=O)N[C@@H](CCC(=O)O)C(=O)N[C@@H](C)C(=O)N[C@H](C(N)=O)C(C)C)NC(=O)[C@H]([C@@H](C)O)NC(=O)[C@H](CO)NC(=O)[C@H](Cc2c[nH]cn2)NC1=O [Compound 18, Ac-RRIELARR$HST$EARYEAV-NH2] (Ac-RRIELARR[S5]HST[S5]EARYEAV-NH2; staple 9-13)	> 20 µM	
CC[C@H](C)[C@H](NC(=O)[C@H](CCCNC(=N)N)NC(=O)[C@H](CCCNC(=N)N)NC(=O)[C@H](CCCNC(=N)N)NC(=O)[C@H](CC(C)C)NC(=O)[C@H](CCCNC(=N)N)NC(=O)[C@H](CCC(=O)O)NC(C)=O)C(=O)N[C@@]1(C)CCCC=CCCC[C@@](C)(C(=O)N[C@@H](Cc2c[nH]cn2)C(=O)N[C@@H](Cc2c[nH]cn2)C(=O)N[C@@H](CO)C(=O)N[C@H](C(=O)N[C@@H](CS)C(=O)N[C@@H](CCC(=O)O)C(=O)N[C@@H](C)C(=O)N[C@@H](CCCNC(=N)N)C(=O)N[C@@H](Cc2ccc(O)cc2)C(=O)N[C@@H](CCC(=O)O)C(=O)N[C@@H](C)C(=O)N[C@H](C(N)=O)C(C)C)[C@@H](C)O)NC(=O)[C@H](CCCNC(=N)N)NC(=O)[C@H](CS)NC(=O)[C@H](CC(C)C)NC1=O [Compound 15, Ac-ERLRRRI$LCR$HHSTCEARYEAV-NH2] (Ac-ERLRRRI[S5]LCR[S5]HHSTCEARYEAV-NH2; staple 8-12)	2.2 µM	

Continued, in another order:

EC50 [2]	Compound	further results
> 20 µM	CC[C@H](C)[C@H](NC(=O)[C@H](CCCNC(=N)N)NC(=O)[C@H](CCCNC(=N)N)NC(=O)[C@H](CCCNC(=N)N)NC(=O)[C@H](CC(C)C)NC(=O)[C@H](CCCNC(=N)N)NC(=O)[C@H](CCC(=O)O)NC(C)=O)C(=O)N[C@@]1(C)CCCC=CCCC[C@@](C)(C(=O)N[C@@H](Cc2c[nH]cn2)C(=O)N[C@@H](Cc2c[nH]cn2)C(=O)N[C@@H](CO)C(=O)N[C@H](C(N)=O)[C@@H](C)O)NC(=O)[C@H](CCCNC(=N)N)NC(=O)[C@H](C)NC(=O)[C@H](CC(C)C)NC1=O [Compound 4, Ac-ERLRRRI$LAR$HHST-NH2] (Ac-ERLRRRI[S5]LAR[S5]HHST-NH2; staple 8-12)	Kd ([1]; human): < 0.1 µM; fraction unbound ([1]; human, serum): < 0.001
> 20 µM	CC[C@H](C)[C@H](NC(=O)[C@H](CCCNC(=N)N)NC(=O)[C@H](CCCNC(=N)N)NC(=O)[C@H](CCCNC(=N)N)NC(=O)[C@H](CC(C)C)NC(=O)[C@H](C)NC(C)=O)C(=O)N[C@@H](CCC(=O)O)C(=O)N[C@@H](CC(C)C)C(=O)N[C@@H](C)C(=O)N[C@@H](C)C(=O)N[C@@H](CCCNC(=N)N)C(=O)N[C@@H](Cc1c[nH]cn1)C(=O)N[C@@H](Cc1c[nH]cn1)C(=O)N[C@@]1(C)CCCC=CCCC[C@@](C)(C(=O)N[C@@H](CCCNC(=N)N)C(=O)N[C@@H](Cc2ccc(O)cc2)C(=O)N[C@@H](CCC(=O)O)C(=O)N[C@@H](C)C(=O)N[C@H](C(N)=O)C(C)C)NC(=O)[C@H](CCC(=O)O)NC(=O)[C@H](C)NC(=O)[C@H]([C@@H](C)O)NC1=O [Compound 24, Ac-ALRRRIELAARHH$TAE$RYEAV-NH2] (Ac-ALRRRIELAARHH[S5]TAE[S5]RYEAV-NH2; staple 14-18)	
11.5 µM	CC[C@H](C)[C@H](NC(=O)[C@H](CCCNC(=N)N)NC(=O)[C@H](CCCNC(=N)N)NC(=O)[C@H](CCCNC(=N)N)NC(=O)[C@H](CC(C)C)NC(=O)[C@H](C)NC(=O)[C@H](CCC(=O)O)NC(C)=O)C(=O)N[C@@]1(C)CCCC=CCCC[C@@](C)(C(=O)N[C@@H](Cc2c[nH]cn2)C(=O)N[C@@H](Cc2c[nH]cn2)C(=O)N[C@@H](CO)C(=O)N[C@H](C(N)=O)[C@@H](C)O)NC(=O)[C@H](C)NC(=O)[C@H](CS)NC(=O)[C@H](CC(C)C)NC1=O [Compound 7, Ac-EALRRRI$LCA$HHST-NH2] (Ac-EALRRRI[S5]LCA[S5]HHST-NH2; staple 8-12)	
